Read-outs that look alike come from different tables or passages of the source.
Key:
[1] = tested on: Haemophilus influenzae Holt; experiment: MIC, standard agar-dilution assay (Table II); type: cell-based; parameters: unit not given here; conditions: ampicillin-sensitive strain
Method: (§1) The MIC's in Table II were determined by standard agar-dilution assays. The MIC's in Table III were obtained using a conventional broth-dilution microtiter test.

[2] = tested on: Haemophilus influenzae R252; experiment: MIC, standard agar-dilution assay (Table II); type: cell-based; parameters: unit not given here; conditions: Haemophilus influenzae R252, ampicillin-resistant strain
Method: as §1

[3] = tested on: Staphylococcus aureus S13E; experiment: MIC, standard agar-dilution assay (Table II); type: cell-based; parameters: unit not given here
Method: as §1

[4] = tested on: Staphylococcus aureus V41; experiment: MIC, standard agar-dilution assay (Table II); type: cell-based; parameters: unit not given here; conditions: Staphylococcus aureus V41, penicillin-resistant strain
Method: as §1

[5] = tested on: Staphylococcus aureus X1.1; experiment: MIC, standard agar-dilution assay (Table II); type: cell-based; parameters: unit not given here
Method: as §1

[6] = tested on: Staphylococcus aureus X400; experiment: MIC, standard agar-dilution assay (Table II); type: cell-based; parameters: unit not given here; conditions: Staphylococcus aureus X400, methicillin-resistant strain
Method: as §1

[7] = tested on: Staphylococcus epidermidis EPI1; experiment: MIC, standard agar-dilution assay (Table II); type: cell-based; parameters: unit not given here
Method: as §1

[8] = tested on: Staphylococcus epidermidis EPI2; experiment: MIC, standard agar-dilution assay (Table II); type: cell-based; parameters: unit not given here
Method: as §1

[9] = tested on: Streptococcus Group D 9960; experiment: MIC, standard agar-dilution assay (Table II); type: cell-based; parameters: unit not given here
Method: as §1

[10] = tested on: Streptococcus Group D X66; experiment: MIC, standard agar-dilution assay (Table II); type: cell-based; parameters: unit not given here
Method: as §1

[11] = tested on: Streptococcus pneumoniae Park I; experiment: MIC, standard agar-dilution assay (Table II); type: cell-based; parameters: unit not given here
Method: as §1

[12] = tested on: Streptococcus pyogenes C203; experiment: MIC, standard agar-dilution assay (Table II); type: cell-based; parameters: unit not given here
Method: as §1

Mycoplasma gallisepticum = experiment: MIC, broth-dilution microtiter test (Table III); type: cell-based; parameters: unit not given here
Method: as §1

Mycoplasma hyorhinis = experiment: MIC, broth-dilution microtiter test (Table III); type: cell-based; parameters: unit not given here
Method: as §1

Mycoplasma synoviae = experiment: MIC, broth-dilution microtiter test (Table III); type: cell-based; parameters: unit not given here
Method: as §1

[13] = tested on: Pasteurella haemolytica 22C; experiment: MIC, broth-dilution microtiter test (Table III); type: cell-based; parameters: unit not given here
Method: as §1

[14] = tested on: Pasteurella haemolytica 23C; experiment: MIC, broth-dilution microtiter test (Table III); type: cell-based; parameters: unit not given here
Method: as §1

[15] = tested on: Pasteurella haemolytica 41D; experiment: MIC, broth-dilution microtiter test (Table III); type: cell-based; parameters: unit not given here
Method: as §1

[16] = tested on: Pasteurella multocida 17E; experiment: MIC, broth-dilution microtiter test (Table III); type: cell-based; parameters: unit not given here; conditions: bovine isolate
Method: as §1

[17] = tested on: Pasteurella multocida 22A; experiment: MIC, broth-dilution microtiter test (Table III); type: cell-based; parameters: unit not given here
Method: as §1

[18] = tested on: Pasteurella multocida 40G; experiment: MIC, broth-dilution microtiter test (Table III); type: cell-based; parameters: unit not given here
Method: as §1

[19] = tested on: Pasteurella multocida 60A; experiment: MIC, broth-dilution microtiter test (Table III); type: cell-based; parameters: unit not given here; conditions: avian isolate
Method: as §1

[20] = tested on: Pasteurella multocida 68C; experiment: MIC, broth-dilution microtiter test (Table III); type: cell-based; parameters: unit not given here
Method: as §1

Staphylococcus aureus = experiment: MIC, broth-dilution microtiter test (Table III); type: cell-based; parameters: unit not given here
Method: as §1

Streptococcus sp. 80 = experiment: MIC, broth-dilution microtiter test (Table III); type: cell-based; parameters: unit not given here
Method: as §1

[21] = tested on: Streptococcus pyogenes C203; experiment: ED50 in mice with experimental infections (Table IV); type: in vivo; conditions: Streptococcus pyogenes, doses given 1 and 4 hours postinfection
Outline: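 Read-out is ED50, the mg/kg dose protecting half of infected mice; values refer to each of two doses, given 1 and 4 hours after infection.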

Pasteurella multocida = experiment: Treatment of Pasteurella infections in chicks (Table V); type: in vivo, one-day-old chicks; conditions: Pasteurella multocida, sc, 4 h; 30 mg/kg by subcutaneous injection one and four hours post challenge; read-out: Deaths in Treated Chicks/Number Treated (converted)
Outline: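 Dosing was 30 mg/kg by subcutaneous injection, one and four hours after challenge. Day-old chicks received 0.1 ml of a 10^-3 dilution of a 20-hour tryptose broth culture of avian P. multocida subcutaneously. Nonmedicated infected chicks served as controls, ten per group.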

[22] = C203, oral, read-out: ED50, Oral
[23] = C203, sc, subcutaneous, read-out: ED50, Subcutaneous

## CCC1OC(=O)CC(O)C(C)C(OC2OC(C)C(O)C(N(C)C)C2OC(C)=O)C(CC=O)CC(C)C(=O)C=CC(C)=CC1COC(=O)C=Cc1ccccc1 (centres unmarked) [Compound 33]
[1]
  minimal inhibitory concentration (MIC): 4
[2]
  minimal inhibitory concentration (MIC): 4
[3]
  minimal inhibitory concentration (MIC): 0.5
[4]
  minimal inhibitory concentration (MIC): 0.5
[5]
  minimal inhibitory concentration (MIC): 0.5
[6]
  minimal inhibitory concentration (MIC): 0.5
[7]
  minimal inhibitory concentration (MIC): 0.5
[8]
  minimal inhibitory concentration (MIC): 0.5
[9]
  minimal inhibitory concentration (MIC): 1
[10]
  minimal inhibitory concentration (MIC): 1
[11]
  minimal inhibitory concentration (MIC): 0.125
[12]
  minimal inhibitory concentration (MIC): 0.25
Mycoplasma gallisepticum
  minimal inhibitory concentration (MIC): 0.05
Mycoplasma hyorhinis
  minimal inhibitory concentration (MIC): 0.78
Mycoplasma synoviae
  minimal inhibitory concentration (MIC): 0.39
[13]
  minimal inhibitory concentration (MIC): 12.5
[14]
  minimal inhibitory concentration (MIC): 12.5
[15]
  minimal inhibitory concentration (MIC): 12.5
[16]
  minimal inhibitory concentration (MIC): 3.12
[17]
  minimal inhibitory concentration (MIC): 3.12
[18]
  minimal inhibitory concentration (MIC): 3.12
[19]
  minimal inhibitory concentration (MIC): 3.12
[20]
  minimal inhibitory concentration (MIC): 3.12
Staphylococcus aureus
  minimal inhibitory concentration (MIC): 0.39
Streptococcus sp. 80
  minimal inhibitory concentration (MIC): 0.39
[21]; [22]
  ED50: 146 mg/kg
[21]; [23]
  ED50: 9.7 mg/kg
Pasteurella multocida
  mortality at 30 mg/kg: 80%

## CCC1OC(=O)CC(O)C(C)C(OC2OC(C)C(O)C(N(C)C)C2O)C(CC=O)CC(C)C(=O)C=CC(C)=CC1COC(=O)CCCC(=O)OC (centres unmarked) [Compound 72]
[1]
  minimal inhibitory concentration (MIC): 2
[2]
  minimal inhibitory concentration (MIC): 1
[3]
  minimal inhibitory concentration (MIC): 0.25
[4]
  minimal inhibitory concentration (MIC): 0.25
[5]
  minimal inhibitory concentration (MIC): 0.125
[6]
  minimal inhibitory concentration (MIC): 0.25
[7]
  minimal inhibitory concentration (MIC): 0.25
[8]
  minimal inhibitory concentration (MIC): 0.25
[9]
  minimal inhibitory concentration (MIC): 0.25
[10]
  minimal inhibitory concentration (MIC): 0.25
[11]
  minimal inhibitory concentration (MIC): 0.03
[12]
  minimal inhibitory concentration (MIC): 0.125
Mycoplasma gallisepticum
  minimal inhibitory concentration (MIC): 0.195
Mycoplasma hyorhinis
  minimal inhibitory concentration (MIC): 25
Mycoplasma synoviae
  minimal inhibitory concentration (MIC): 0.78
[13]
  minimal inhibitory concentration (MIC): 12.5
[14]
  minimal inhibitory concentration (MIC): 6.25
[15]
  minimal inhibitory concentration (MIC): 12.5
[16]
  minimal inhibitory concentration (MIC): 6.25
[17]
  minimal inhibitory concentration (MIC): 3.12
[18]
  minimal inhibitory concentration (MIC): 3.12
[19]
  minimal inhibitory concentration (MIC): 3.12
[20]
  minimal inhibitory concentration (MIC): 3.12
Staphylococcus aureus
  minimal inhibitory concentration (MIC): 1.56
Streptococcus sp. 80
  minimal inhibitory concentration (MIC): 1.56
[21]; [22]
  ED50: 87 mg/kg
[21]; [23]
  ED50: 2.3 mg/kg
Pasteurella multocida
  mortality at 30 mg/kg: 50%

## CCC1OC(=O)CC(O)C(C)C(OC2OC(C)C(O)C(N(C)C)C2O)C(CC=O)CC(C)C(=O)C=CC(C)=CC1COC(=O)OC (centres unmarked) [Compound 74]
[1]
  minimal inhibitory concentration (MIC): 1
[2]
  minimal inhibitory concentration (MIC): 2
[3]
  minimal inhibitory concentration (MIC): 0.25
[4]
  minimal inhibitory concentration (MIC): 0.25
[5]
  minimal inhibitory concentration (MIC): 0.25
[6]
  minimal inhibitory concentration (MIC): 0.5
[7]
  minimal inhibitory concentration (MIC): 0.25
[8]
  minimal inhibitory concentration (MIC): 0.25
[9]
  minimal inhibitory concentration (MIC): 0.25
[10]
  minimal inhibitory concentration (MIC): 0.5
[11]
  minimal inhibitory concentration (MIC): 0.03
[12]
  minimal inhibitory concentration (MIC): 0.25
Mycoplasma gallisepticum
  minimal inhibitory concentration (MIC): < 0.048
Mycoplasma hyorhinis
  minimal inhibitory concentration (MIC): 0.78
Mycoplasma synoviae
  minimal inhibitory concentration (MIC): 0.195
[13]
  minimal inhibitory concentration (MIC): 6.25
[14]
  minimal inhibitory concentration (MIC): 3.12
[15]
  minimal inhibitory concentration (MIC): 1.56
[16]
  minimal inhibitory concentration (MIC): 1.56
[17]
  minimal inhibitory concentration (MIC): 25
[18]
  minimal inhibitory concentration (MIC): 12.5
[19]
  minimal inhibitory concentration (MIC): 1.56
[20]
  minimal inhibitory concentration (MIC): 12.5
Staphylococcus aureus
  minimal inhibitory concentration (MIC): 1.56
Streptococcus sp. 80
  minimal inhibitory concentration (MIC): 0.39
[21]; [22]
  ED50: > 100 mg/kg
[21]; [23]
  ED50: 3 mg/kg
Pasteurella multocida
  mortality at 30 mg/kg: 0%

## CCC(=O)OCC1C=C(C)C=CC(=O)C(C)CC(CC=O)C(OC2OC(C)C(O)C(N(C)C)C2O)C(C)C(O)CC(=O)OC1CC (centres unmarked) [Compound 14, 23-O-Propionyl-OMT]
[1]
  minimal inhibitory concentration (MIC): 1
[2]
  minimal inhibitory concentration (MIC): 4
[3]
  minimal inhibitory concentration (MIC): 0.25
[4]
  minimal inhibitory concentration (MIC): 0.25
[5]
  minimal inhibitory concentration (MIC): 0.25
[6]
  minimal inhibitory concentration (MIC): 0.25
[7]
  minimal inhibitory concentration (MIC): 0.125
[8]
  minimal inhibitory concentration (MIC): 0.125
[9]
  minimal inhibitory concentration (MIC): 0.25
[10]
  minimal inhibitory concentration (MIC): 0.25
[11]
  minimal inhibitory concentration (MIC): 0.125
[12]
  minimal inhibitory concentration (MIC): 0.125
Mycoplasma gallisepticum
  minimal inhibitory concentration (MIC): 0.05
Mycoplasma hyorhinis
  minimal inhibitory concentration (MIC): 6.25
Mycoplasma synoviae
  minimal inhibitory concentration (MIC): 0.05
[13]
  minimal inhibitory concentration (MIC): 6.25
[14]
  minimal inhibitory concentration (MIC): 3.12
[15]
  minimal inhibitory concentration (MIC): 6.25
[16]
  minimal inhibitory concentration (MIC): 1.56
[17]
  minimal inhibitory concentration (MIC): 3.12
[18]
  minimal inhibitory concentration (MIC): 1.56
[19]
  minimal inhibitory concentration (MIC): 0.78
[20]
  minimal inhibitory concentration (MIC): 1.56
Staphylococcus aureus
  minimal inhibitory concentration (MIC): 0.39
Streptococcus sp. 80
  minimal inhibitory concentration (MIC): 0.195
[21]; [22]
  ED50: 106 mg/kg
[21]; [23]
  ED50: 6 mg/kg
Pasteurella multocida
  mortality at 30 mg/kg: 0%

## CCC1OC(=O)CC(O)C(C)C(OC2OC(C)C(O)C(N(C)C)C2OC(C)=O)C(CC=O)CC(C)C(=O)C=CC(C)=CC1COC(C)=O (centres unmarked) [Compound 9]
[1]
  minimal inhibitory concentration (MIC): 1
[2]
  minimal inhibitory concentration (MIC): 4
[3]
  minimal inhibitory concentration (MIC): 0.25
[4]
  minimal inhibitory concentration (MIC): 0.5
[5]
  minimal inhibitory concentration (MIC): 0.45
[6]
  minimal inhibitory concentration (MIC): 0.5
[7]
  minimal inhibitory concentration (MIC): 0.25
[8]
  minimal inhibitory concentration (MIC): 0.25
[9]
  minimal inhibitory concentration (MIC): 0.5
[10]
  minimal inhibitory concentration (MIC): 0.5
[11]
  minimal inhibitory concentration (MIC): 0.125
[12]
  minimal inhibitory concentration (MIC): 0.25
Mycoplasma gallisepticum
  minimal inhibitory concentration (MIC): < 0.78
Mycoplasma hyorhinis
  minimal inhibitory concentration (MIC): 1.56
Mycoplasma synoviae
  minimal inhibitory concentration (MIC): 0.097
[13]
  minimal inhibitory concentration (MIC): 3.12
[14]
  minimal inhibitory concentration (MIC): 3.12
[15]
  minimal inhibitory concentration (MIC): 3.12
[16]
  minimal inhibitory concentration (MIC): 1.56
[17]
  minimal inhibitory concentration (MIC): 6.25
[18]
  minimal inhibitory concentration (MIC): 1.56
[19]
  minimal inhibitory concentration (MIC): 1.56
[20]
  minimal inhibitory concentration (MIC): 3.12
Staphylococcus aureus
  minimal inhibitory concentration (MIC): 0.78
Streptococcus sp. 80
  minimal inhibitory concentration (MIC): 0.195
[21]; [22]
  ED50: 137 mg/kg
[21]; [23]
  ED50: 6.4 mg/kg
Pasteurella multocida
  mortality at 30 mg/kg: 0%

— patent US4401660A, “Ester derivatives of 5-O-mycaminosyl tylonolide and method of using same” (Eli Lilly and Company, priority 1981, dated 1983)
